For orientation: half-life means how long it takes for the measured level to halve. Read a high half-life as slow loss. One may read the clearance as a measure of how efficiently the substance is removed, as volume per time. One may read the Vd as the apparent volume that relates the amount in the body to the concentration in plasma or blood.

Structures are written as SMILES. Where two headings read alike, the source gives them in different places. A value given as a limit tells only on which side of the number the result lay.

The values below come from patent US7879835B2 (Korea Research Institute of Chemical Technology, priority 2004, dated 2011).

For one series, the system named is rats. The series can be described thus: In vivo acute toxicity test (LD50). The note with it: single dose, 2 weeks observation. As to the method: In order to determine the acute toxicities of the compounds prepared in Examples, 6-week old specific pathogen-free (SPF) rats each weighing […] were divided into groups of 10 rat each.
In case of subcutaneous administration, each of the compounds was dissolved in 5% PEG400 solution to a concentration of 20 mg/ml, the resulting solution was serially diluted with 5% PEG400 solution to concentrations of 5, 2.5, 1.25 and 0.625 mg/ml, and the dilutions were subcutaneously injected once to the rats at a dose of 10 ml/kg body weight.
In case of oral administration, each of the compounds was dissolved in soybean oil to a concentration of 180 mg/ml, the resulting solution was serially diluted with soybean oil to concentrations of 80, 20 and 5 mg/ml, and the dilutions were orally administered once to the rats at a dose of 20 ml/kg body weight. […]
During 2 weeks after the administration of the compounds, the death rate, clinical symptoms and weight changes of the rats were observed, and hematological and biochemical tests on blood samples were performed. Then, the rats were sacrificed and the internal organs were visually examined to check any abnormal signs in the organs of chest and abdomen.

The nature of series [1]: In vitro pharmacokinetics: metabolic stability in liver microsome. It is filed as in vitro ADME. The note with it: human liver microsome 1 mg/ml, 20 μM compound; for half-life at 20 µM: liver microsomes. Here is the method:
Metabolic stabilities of the compounds of the Examples were examined by employing microsome samples prepared from the human liver.
Each 20 μM of the compounds were reacted with 1 mg/ml of liver microsome and the half-lives and one-hour stabilities of the compounds were determined.
A general note: Liver microsomes are a subcellular fraction often used to study metabolism.

Series [2] in a line: In vivo pharmacokinetics using female mice (serum concentration, HPLC). The note with it: I.V.; for clearance / Half-life / Vd: mouse, serum, iv; for clearance: read-out: CL (clearance) (converted); for Half-life: read-out: Half-life (converted); for Vd: read-out: Vd (volume of distribution). Here is the method:
Female mice each weighing […] were divided into groups of 5 mice each. The mice were anesthetized with ether, catheterized in their femoral artery and vein, respectively, and administered with 0.5 mg/kg body weight of compounds 234 and 274, and 5 mg/kg body weight of compounds 388, 404 and 415, respectively, via intravenous injection. Alternatively, 15 mg/kg body weight of compound 274 and 10 mg/kg body weight of compound 234 were orally administered to the mice.
At 0, 5, 10, 15 and 30 minutes and 1, 2, 4, 6, 9 and 12 hours after the intravenous injection, or at 0, 10, 20 and 40 minutes and 1, 2, 4, 6, 9 and 12 hours after the oral administration, 0.3 ml blood samples were taken from the mice through femoral artery. The blood samples were kept on an ice bath for 30 minutes and centrifuged at 3,000 rpm for 10 minutes to obtain a supernatant (serum). The supernatant samples were stored at −20° C.
Standard solution: Compounds 234, 274, 388, 404 and 415 were respectively dissolved in methanol to a concentration of 1 mg/ml to obtain stock solutions. The stock solutions were diluted with methanol to obtain standard solutions having concentrations of 40, 20, 10, 2, 1, 0.5, 0.2, 0.05 and 0.02 μg/ml, respectively.
Standard calibration curve: A stand calibration curve was prepared by employing calibration concentrations of 0.002, 0.005, 0.02, 0.05, 0.1, 0.2, 1, 2 and 4 μg/ml.
10 μl each of the standard solutions prepared above was added to 100 μl of normal serum sample and diluted 10 times. 250 μl of acetonitrile was added to the resulting dilution and the mixture was centrifuged for 10 minutes to obtain a supernatant. 300 μl of the supernatant was dried by evaporation under a nitrogen atmosphere and reconstituted by adding 50 μl of methanol. 20 μl of the resulting solution was analyzed by HPLC to prepare a standard calibration curve. HPLC was performed with Shimadzu ODS2 column (4.6×250 mm, 5 μm by employing a mixture of methanol/water (90/10 (v/v)) as the mobile phase at a flow rate of 1.2 ml/min, and measuring the absorbance at 240 nm.
Extraction: 100 μl of the serum sample obtained in (4-2-1) was put into a 1 ml microtube and 10 μl of methanol was added thereto. 250 μl of acetonitrile was added to the microtube and the mixture was centrifuged for 10 minutes to obtain a supernatant. 300 μl of the supernatant was dried by evaporation under a nitrogen atmosphere and reconstituted by adding 50 μl of methanol. 20 μl of the resulting solution was analyzed by the HPLC method as above.
Average concentrations of the compounds in the serum samples were plotted in a semi-log scale against the time lapsed after the administration, and the pharmacokinetic parameters were determined as a non-compartment open model by employing WinNonlin® program (Pharsight Corporation).

Series [3] concerns osteoclast (TRAP-positive multinuclear cell) formation. The series can be described thus: Inhibitory effect on osteoclast formation (TRAP staining). It is filed as cell-based, mice. The note with it: compared to control; for inhibition at 0.1 µM / inhibition at 0.3 µM / inhibition at 1 µM / inhibition at 3 µM: Mus musculus, Osteoclast, read-out: Osteoclast formation inhibitory effects (%); for inhibition at 0.1 µM: 0.1 μM (Table 4b). Put shortly: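 Non-adherent bone marrow cells from 7–9-week-old female mice, 2×10^5 per well, cultured 8 days with M-CSF (20 ng/ml), RANKL (30 ng/ml) and compound at 0.3, 1.0 or 3 μM. Formation scored by TRAP staining after fixation, 1 h at 37 °C, pH 5.0.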

In another series the test system is MG-63 cells. The series can be described thus: Cytotoxicity test against osteoblast (MTT). It is filed as cell-based, human. As to the method: In order examine the toxicities of the compounds of the Examples against osteoclast pregenitors, pregenitor cells were aliquotted onto a 96-well microplate at a density of 2×10^5 cells per well, treated with 2, 4 and 8 μM of the test compounds, respectively, and cultured for 48 hrs in α-MEM supplemented with 20 ng/ml of M-CSF (Peprotech, USA) using 37° C. incubator (5% CO2). At 3 hrs before the culture was finished, 50 μl of MTT (3-(4,5-dimethylthiazol-2-yl)-2,5-diphenyltetrazolium bromide) solution (50 μg/ml) was added to each well. Upon completion of the cell culture, the supernatant was removed, and the precipitated dye was reacted with 100 μl of isopropanol/0.04 N HCl at room temperature for 30 min to dissolve it. The absorbances of the wells were measured at 550 nm, and the relative absorbance of each well relative to that of the control (set as 100) is shown in Table 6.
In order to examine the toxicity of the compounds of the Examples against osteoblasts, human osteosarcoma-derived cell line, MG-63 (ATCC No. CRL-1427) cells were treated with 0.1, 0.3, 1.0 and 3.0 μM of the compounds of the Examples, and cultured in DMEM supplemented with 10% FBS (fetal bovine serum).

The subject of a further series is osteoclasts. As to the kind of experiment: Inhibitory effect on resorption activity of osteoclast (resorption pit area on calcium phosphate-coated plate). The class given is cell-based, mice. The note with it: compared to control. Here is the method: After finishing culture, the plate was washed with distilled water, and 50 μl/well of 5% sodium hypochlorite was added to the plate. The plate was let alone for 5 min, washed again with distilled water to remove the adherent cells, and dried at room temperature. Then, the area of formed resorption pits was calculated by means of Image Pro Plus software (Media Cybernetics Ver. 3.0).

With `CO/C=C(/C(=O)OC)c1ccccc1COc1cccc(C(C)F)c1` (stereo not shown) [compound 169], the LD50 was over 1000 mg/kg body weight in the series on rats (PO) and 10 mg/kg body weight with rats (SC).
`CO/C=C(/C(=O)OC)c1ccccc1COc1cccc(N2CCCC2)n1` [Compound No. 415, (E)-methyl-2-[2-((6-(pyrrolidin-1-yl)pyridin-2-yloxy)-methyl)phenyl]-3-methoxyacrylate] displayed a half-life at 20 µM in series [1] of 24.9 min. In series [2], the “AUC (area under the curve of blood concentration versus time)” value was 176.4 ± 32.9 µg·h/mL, the clearance was 0.0317 mL/min, the Half-life was 647 ± 96.6 min and the Vd came out at 0.027 ± 0.0012 L/kg. In addition, the inhibition at 0.1 µM in series [3] was determined as 5%. Further, in series [3] (0.3 μM (Table 4b)), the inhibition at 0.3 µM amounted to 57%. In series [3] (1 μM (Table 4b)), the inhibition at 1 µM stood at 100%. Besides, the inhibition at 3 µM in series [3] (3 μM (Table 4b)) turned out to be 100%.
The compound `CO/C=C(/C(=O)OC)c1ccccc1COc1cccc(CN2CCOCC2)c1` [Compound No. 404, (E)-methyl-2-[2-((3-(morpholinomethyl)phenoxy)-methyl)phenyl]-3-methoxyacrylate] had a half-life at 20 µM in series [1] of 57.4 ± 2.3 min. In series [2], the “AUC (area under the curve of blood concentration versus time)” value was 97.2 ± 14.8 µg·h/mL, the clearance was 0.0567 mL/min, the Half-life is 612 ± 114 min and the Vd worked out at 0.0462 ± 0.0064 L/kg. In addition, the “relative absorbance (MTT) relative to control (set as 100)” value in the series with MG-63 cells (0.33 μM compound) came to 83. Further, the “relative absorbance (MTT) relative to control (set as 100)” value in the series on MG-63 cells (1 μM compound) came to 92. Further, the “relative absorbance (MTT) relative to control (set as 100)” value in the series on MG-63 cells (3 μM compound) was found to be 94. Also, in series [3] (0.3 μM (Table 4b)), the inhibition at 0.3 µM turned out to be 9%. In series [3] (1 μM (Table 4b)), the inhibition at 1 µM came out at 63%. In addition, the inhibition at 3 µM in series [3] (3 μM (Table 4b)) was found to be 100%.
Regarding `CO/C=C(/C(=O)OC)c1ccc(Cl)cc1COc1ccc(OCC2CC2)cc1`, the One-hour stability in series [1] was 70%. Also, in series [1], the half-life at 20 µM is over 180 min. Besides, the LD50 in the series with rats (PO) is on record as 100-300 mg/kg body weight; in the series with rats (SC), 5 mg/kg body weight. For the same compound, the “Reduction (%) of the resorption pit area of osteoclasts” value with osteoclasts (0.3 uM), in the series on osteoclasts (1 uM) and with osteoclasts (3 uM) was 100% in each case. The inhibition at 0.3 µM in series [3] (192 h, 0.3 μM, 8 days culture with M-CSF and RANKL) was determined as 98%. Besides, the inhibition at 1 µM in series [3] (192 h, 1.0 μM, 8 days culture with M-CSF and RANKL) stood at 100%. The inhibition at 3 µM in series [3] (192 h, 3.0 μM, 8 days culture with M-CSF and RANKL) came out at 100%.
Consider `CCCCCCOc1cccc(/C(C)=N/OCc2ccccc2/C(=C\OC)C(=O)OC)c1` [compound 15, (E)-methyl 2-(((({1E}-1-(3-(n-hexyloxy)phenyl)ethylidene)amino)oxy)methyl)phenyl-3-methoxyacrylate], for which, in series [1], the Half-life came out at 36.9 min. Further, the One-hour stability in series [1] is on record as 33%. For the same compound, the LD50 in the series with rats (PO) is on record as over 2000 mg/kg body weight; in the series on rats (SC), over 50 mg/kg body weight. In addition, the “Reduction (%) of the resorption pit area of osteoclasts” value is recorded as 41% in the series on osteoclasts (0.3 uM), 57% with osteoclasts (1 uM) and 93% in the series on osteoclasts (3 uM). Further, the “relative absorbance relative to that of the control (set as 100), MTT” value amounted to 105 in the series on MG-63 cells (0.33 uM), 85 in the series on MG-63 cells (1 uM) and 76 in the series on MG-63 cells (3 uM). Moreover, the “Osteoclast formation inhibitory effects (%)” value is 92% in series [3] (0.3 μM, 8 days culture with M-CSF and RANKL); 100% in series [3] (1.0 μM, 8 days culture with M-CSF and RANKL); 100% in series [3] (3.0 μM, 8 days culture with M-CSF and RANKL).
Consider `CO/C=C(/C(=O)OC)c1ccccc1COc1ccc(N2CCCCC2)cc1` [compound 399], for which, in series [1], the half-life at 20 µM stood at 43 ± 1.8 min. For the same compound, the entries for the “relative absorbance (MTT) relative to control (set as 100)” value with MG-63 cells (0.33 μM compound), in the series on MG-63 cells (1 μM compound) and in the series on MG-63 cells (3 μM compound) were 96, 76 and 65, respectively. The inhibition at 0.1 µM in series [3] stood at 0%. Besides, the inhibition at 0.3 µM in series [3] (0.3 μM (Table 4b)) is 70%. Further, in series [3] (1 μM (Table 4b)), the inhibition at 1 µM is 100%. Moreover, the inhibition at 3 µM in series [3] (3 μM (Table 4b)) worked out at 100%.
Regarding `CO/C=C(/C(=O)OC)c1ccc(Cl)cc1COc1cccc(N2CCOCC2)c1` [Compound No. 386, (E)-methyl-2-[2-((3-morpholinophenoxy)methyl)-4-chlorophenyl]-3-methoxyacrylate], in series [1], the half-life at 20 µM stood at 40.7 min. In addition, the “relative absorbance (MTT) relative to control (set as 100)” value was 101 in the series with MG-63 cells (0.33 μM compound), 69 with MG-63 cells (1 μM compound) and 68 in the series with MG-63 cells (3 μM compound). Further, in series [3], the inhibition at 0.1 µM is 100%. Also, in series [3] (0.3 μM (Table 4b)), the inhibition at 0.3 µM turned out to be 100%. In series [3] (1 μM (Table 4b)), the inhibition at 1 µM was 100%. Further, the inhibition at 3 µM in series [3] (3 μM (Table 4b)) was found to be 100%.
